Test results taken from US10766869B2, “Triazoles for the treatment of demyelinating dieases” (Vertex Pharmaceuticals Incorporated, priority 2015, dated 2020).
Where two headings read alike, the source gives them in different places.

Tested on: primary rat mixed cortical cells
Test: In vitro myelination assay (MBP positive myelin strands, fold myelin pixels above background)
Assay type: cell-based
Settings: Rattus norvegicus; for fold induction at 1 µM: 1.0 μM compound; for fold induction at 10 µM: 10.0 μM compound
Summary of the method: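 Fourteen-day treatment of primary P1 rat mixed cortical cultures, re-dosed at days 6 and 10, at 1.0 μM and 10.0 μM. MBP immunofluorescence was imaged at 10× and myelin strands quantified by software, normalised to untreated wells as fold above background.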

[1] = read-out: Fold myelin pixels above background relative to baseline of no added compound
[2] = relative to baseline of no added compound, read-out: Fold myelin pixels above background, 1.0 μM
[3] = relative to baseline of no added compound, read-out: Fold myelin pixels above background, 10.0 μM
[4] = relative to baseline of no added compound, read-out: Fold myelin pixels above background

## Cc1cc(Nc2ncn(-c3cc(F)cc(F)c3)n2)cc(NC2CCN(CCN3CCOCC3)C2)c1 (stereo not drawn) [Compound 880, N3-[1-(3,5-difluorophenyl)-1,2,4-triazol-3-yl]-5-methyl-N1-[1-(2-morpholinoethyl)pyrrolidin-3-yl]benzene-1,3-diamine]
[1]
  fold induction at 1 µM: 1 to 10
  fold induction at 10 µM: ≤ 1

## [2H]C1([2H])N(C(=O)C2CC2)C([2H])([2H])C([2H])([2H])N(c2cc(C)cc(Nc3ncn(-c4cc(F)cc(F)c4)n3)c2)C1([2H])[2H] [Compound 961, cyclopropyl-[2,2,3,3,5,5,6,6-octadeuterio-4-[3-[[1-(3,5-difluorophenyl)-1,2,4-triazol-3-yl]amino]-5-methyl-phenyl]piperazin-1-yl]methanone]
[1]
  fold induction at 1 µM: 1 to 10
  fold induction at 10 µM: 1 to 10

## [2H]C1([2H])N(c2cc(C)cc(Nc3ncn(-c4cc(F)cc(F)c4)n3)c2)C([2H])([2H])C([2H])([2H])N(C2CCCOC2)C1([2H])[2H] (stereo not drawn) [Compound 926, 1-(3,5-difluorophenyl)-N-[3-methyl-5-(2,2,3,3,5,5,6,6-octadeuterio-4-tetrahydropyran-3-yl-piperazin-1-yl)phenyl]-1,2,4-triazol-3-amine]
[1]
  fold induction at 1 µM: 10 to 100
  fold induction at 10 µM: 1 to 10

## Cc1cc(Nc2ncn(-c3cccc(F)c3)n2)cc(C2CCN(C3COC3)C2)c1 (stereo not drawn) [Compound 382, 1-(3-fluorophenyl)-N-[3-methyl-5-[1-(oxetan-3-yl)pyrrolidin-3-yl]phenyl]-1,2,4-triazol-3-amine]
[2]
  fold induction at 1 µM: 1000 to 10000
[3]
  fold induction at 10 µM: 1 to 10

## Cc1cc(Nc2ncn(-c3cnccn3)n2)cc(C2(C)CNC(=O)O2)c1 (stereo not drawn) [Compound 741, 5-methyl-5-[3-methyl-5-[(1-pyrazin-2-yl-1,2,4-triazol-3-yl)amino]phenyl]oxazolidin-2-one]
[4]
  fold induction at 1 µM: 10 to 100
  fold induction at 10 µM: 1 to 10

## Fc1cc(F)cc(-n2cnc(Nc3cc(C(F)(F)F)cc(N4CCN(C5CCOC5)CC4)n3)n2)c1 (stereo not drawn) [Compound 564, N-[1-(3,5-difluorophenyl)-1,2,4-triazol-3-yl]-6-(4-tetrahydrofuran-3-ylpiperazin-1-yl)-4-(trifluoromethyl)pyridin-2-amine]
[4]
  fold induction at 1 µM: ≤ 1
  fold induction at 10 µM: ≤ 1

## Cc1cc(Nc2ncn(-c3cc(F)cc(F)c3)n2)cc(N2CC(N3CCOC[C@@H]3C)C2)c1 (single isomer, unassigned) [Compound 800]
[1]
  fold induction at 1 µM: 10 to 100
  fold induction at 10 µM: 10 to 100

## Cc1cc(Nc2ncn(-c3cc(F)cc(F)c3)n2)cc(NC2CCN(C3CCOCC3)CC2)c1 [Compound 1013, N3-[1-(3,5-difluorophenyl)-1,2,4-triazol-3-yl]-5-methyl-N1-(1-tetrahydropyran-4-yl-4-piperidyl)benzene-1,3-diamine]
[1]
  fold induction at 1 µM: 10 to 100
  fold induction at 10 µM: ≤ 1

## COCC1(CNc2cc(C)cc(Nc3ncn(-c4cc(F)cc(F)c4)n3)c2)CC1 [Compound 937, N1-[1-(3,5-difluorophenyl)-1,2,4-triazol-3-yl]-N3-[[1-(methoxymethyl)cyclopropyl]methyl]-5-methyl-benzene-1,3-diamine]
[1]
  fold induction at 1 µM: 1 to 10
  fold induction at 10 µM: ≤ 1

## Cc1cc(Nc2ncn(-c3cccc(C#N)c3)n2)cc(N2CCCC2)c1 [Compound 281, 3-[3-(3-methyl-5-pyrrolidin-1-yl-anilino)-1,2,4-triazol-1-yl]benzonitrile]
[2]
  fold induction at 1 µM: 1 to 10
[3]
  fold induction at 10 µM: ≤ 1

## Cc1cc(Nc2ncn(-c3ccc(C(F)(F)F)cc3)n2)cc(N2CCCC2)c1 [Compound 356, N-(3-methyl-5-pyrrolidin-1-yl-phenyl)-1-[4-(trifluoromethyl)phenyl]-1,2,4-triazol-3-amine]
[2]
  fold induction at 1 µM: ≤ 1
[3]
  fold induction at 10 µM: 10 to 100

## N#Cc1cc(Nc2ncn(-c3ccccc3)n2)cc(N2CCOCC2)c1 [Compound 608, 3-morpholino-5-[(1-phenyl-1,2,4-triazol-3-yl)amino]benzonitrile]
[4]
  fold induction at 1 µM: 10 to 100
  fold induction at 10 µM: 1 to 10

## COc1cc(Nc2ncn(-c3ccc(F)cc3)n2)cc(N2CCN(C3COC3)CC2)c1 [Compound 102, 1-(4-fluorophenyl)-N-[3-methoxy-5-[4-(oxetan-3-yl)piperazin-1-yl]phenyl]-1,2,4-triazol-3-amine]
[2]
  fold induction at 1 µM: 100 to 1000
[3]
  fold induction at 10 µM: 1 to 10

## Fc1ccc(-n2cnc(Nc3cc(C(F)(F)F)cc(N4CCOCC4)n3)n2)cc1F [Compound 770, N-[1-(3,4-difluorophenyl)-1,2,4-triazol-3-yl]-6-morpholino-4-(trifluoromethyl)pyridin-2-amine]
[4]
  fold induction at 1 µM: 10 to 100
  fold induction at 10 µM: 10 to 100

## Cc1cc(Nc2ncn(-c3cc(F)cc(F)c3)n2)cc(N2CCN3CCC2C3)c1 (stereo not drawn) [Compound 889, N-[3-(1,4-diazabicyclo[3.2.1]octan-4-yl)-5-methyl-phenyl]-1-(3,5-difluorophenyl)-1,2,4-triazol-3-amine]
[1]
  fold induction at 1 µM: 10 to 100
  fold induction at 10 µM: ≤ 1

## Fc1cc(F)cc(-n2cnc(Nc3cc(N4CCOCC4)cc(C(F)(F)F)c3)n2)c1 [Compound 475, 1-(3,5-difluorophenyl)-N-[3-morpholino-5-(trifluoromethyl)phenyl]-1,2,4-triazol-3-amine]
[4]
  fold induction at 1 µM: 100 to 1000
  fold induction at 10 µM: 1000 to 10000

## Cc1cc(NCC2CN(C3CC3)CCO2)cc(Nc2ncn(-c3cc(F)cc(F)c3)n2)c1 (stereo not drawn) [Compound 968, N3-[(4-cyclopropylmorpholin-2-yl)methyl]-N1-[1-(3,5-difluorophenyl)-1,2,4-triazol-3-yl]-5-methyl-benzene-1,3-diamine]
[1]
  fold induction at 1 µM: 1 to 10
  fold induction at 10 µM: 1 to 10

## COc1cc(Nc2ncn(-c3cc(F)cc(F)c3)n2)cc(N2CCN(C3COC3)CC2)c1 [Compound 310, 1-(3,5-difluorophenyl)-N-[3-methoxy-5-[4-(oxetan-3-yl)piperazin-1-yl]phenyl]-1,2,4-triazol-3-amine]
[2]
  fold induction at 1 µM: 1000 to 10000
[3]
  fold induction at 10 µM: 100 to 1000

## Cc1cc(Nc2ncn(-c3cc(F)cc(F)c3)n2)c(F)c(N2CC(N3CCOCC3)C2)c1 [Compound 790, 1-(3,5-difluorophenyl)-N-[2-fluoro-5-methyl-3-(3-morpholinoazetidin-1-yl)phenyl]-1,2,4-triazol-3-amine]
[1]
  fold induction at 1 µM: 10 to 100
  fold induction at 10 µM: 10 to 100

## Cc1cc(Nc2ncn(-c3ccccc3)n2)cc(N2CC(C)N(C)CC2C)c1 (stereo not drawn) [Compound 419, N-[3-methyl-5-(2,4,5-trimethylpiperazin-1-yl)phenyl]-1-phenyl-1,2,4-triazol-3-amine]
[4]
  fold induction at 1 µM: 10 to 100
  fold induction at 10 µM: ≤ 1

## Fc1cc(F)cc(-n2cnc(Nc3cc(N4CCN(C5COC5)CC4)cc(N4CCN(C5COC5)CC4)c3)n2)c1 [Compound 574, N-[3,5-bis[4-(oxetan-3-yl)piperazin-1-yl]phenyl]-1-(3,5-difluorophenyl)-1,2,4-triazol-3-amine]
[4]
  fold induction at 1 µM: 100 to 1000
  fold induction at 10 µM: 10 to 100

## CCc1cc(Nc2ncn(-c3cnccn3)n2)cc(N2CC(N3CCOCC3)C2)c1 [Compound 341, N-[3-ethyl-5-(3-morpholinoazetidin-1-yl)phenyl]-1-pyrazin-2-yl-1,2,4-triazol-3-amine]
[2]
  fold induction at 1 µM: ≤ 1
[3]
  fold induction at 10 µM: 1 to 10

## Cc1cc(Nc2ncn(-c3ccccc3)n2)cc(N2CCNC(C)C2)c1 (stereo not drawn) [Compound 259, N-[3-methyl-5-(3-methylpiperazin-1-yl)phenyl]-1-phenyl-1,2,4-triazol-3-amine]
[2]
  fold induction at 1 µM: 1000 to 10000
[3]
  fold induction at 10 µM: ≤ 1

## Cc1cc(Nc2ncn(-c3cncc(F)c3)n2)cc(N2CCN(C)CC2)c1 [Compound 387, 1-(5-fluoro-3-pyridyl)-N-[3-methyl-5-(4-methylpiperazin-1-yl)phenyl]-1,2,4-triazol-3-amine]
[4]
  fold induction at 1 µM: 10 to 100
  fold induction at 10 µM: 100 to 1000

## Cc1cc(Nc2ncn(-c3ccncn3)n2)cc(N2CCN(C3CC3)CC2)c1 [Compound 176, N-[3-(4-cyclopropylpiperazin-1-yl)-5-methyl-phenyl]-1-pyrimidin-4-yl-1,2,4-triazol-3-amine]
[2]
  fold induction at 1 µM: 100 to 1000
[3]
  fold induction at 10 µM: 100 to 1000

## Cc1cc(Nc2ncn(-c3cc(F)cc(F)c3)n2)cc(NC2CCOC(C)(C)C2)c1 (stereo not drawn) [Compound 970, N3-[1-(3,5-difluorophenyl)-1,2,4-triazol-3-yl]-N1-(2,2-dimethyltetrahydropyran-4-yl)-5-methyl-benzene-1,3-diamine]
[1]
  fold induction at 1 µM: 10 to 100
  fold induction at 10 µM: ≤ 1

## Cc1cc(Nc2ncn(-c3cc(F)cc(F)c3)n2)cc(N2CC3CC(C2)O3)c1 [Compound 527, 1-(3,5-difluorophenyl)-N-[3-methyl-5-(6-oxa-3-azabicyclo[3.1.1]heptan-3-yl)phenyl]-1,2,4-triazol-3-amine]
[4]
  fold induction at 1 µM: 100 to 1000
  fold induction at 10 µM: 100 to 1000

## CC(=O)OCC(C)(CO)N1CCN(c2cc(C)cc(Nc3ncn(-c4cc(F)cc(F)c4)n3)c2)CC1 (stereo not drawn) [Compound 534, [2-[4-[3-[[1-(3,5-difluorophenyl)-1,2,4-triazol-3-yl]amino]-5-methyl-phenyl]piperazin-1-yl]-3-hydroxy-2-methyl-propyl] acetate]
[4]
  fold induction at 1 µM: 1 to 10
  fold induction at 10 µM: ≤ 1

## Cc1cc(Nc2ncn(-c3ccc(F)c(F)c3)n2)c(F)c(OC2CCOC2)c1 (stereo not drawn) [Compound 978, 1-(3,4-difluorophenyl)-N-(2-fluoro-5-methyl-3-tetrahydrofuran-3-yloxy-phenyl)-1,2,4-triazol-3-amine]
[1]
  fold induction at 1 µM: 10 to 100
  fold induction at 10 µM: 1 to 10

## COCCCN1CCCN(c2cc(C)cc(Nc3ncn(-c4cc(F)cc(F)c4)n3)c2)CC1 [Compound 896, 1-(3,5-difluorophenyl)-N-[3-[4-(3-methoxypropyl)-1,4-diazepan-1-yl]-5-methyl-phenyl]-1,2,4-triazol-3-amine]
[1]
  fold induction at 1 µM: 1 to 10
  fold induction at 10 µM: 1 to 10
